Values of other authors, collected in patent publication US11098113B2, “Immunoglobulin single variable domains directed against macrophage migration inhibitory factor” (VIB VZW, priority 2016, dated 2021).

System: LPS stimulated RAW264.7 macrophages
Settings: ISO-1 at 10 μM, same in vitro conditions; cited from earlier work

COC(=O)C[C@@H]1CC(c2ccc(O)cc2)=NO1 (racemic) [ISO-1, (S,R)-3-(4-hydroxyphenyl)-4,5-dihydro-5-isoxazole acetic acid methyl ester]
inhibition of TNF production: about 50%
